According to patent US20030215472A1, “Methods and compositions employing a dialkyl amide” (priority 2002, published 2003):

Assays:
[1] = Solubility in cosmetic solvents; assay type: physicochemical
[2] = test system: Micrococcus luteus ATCC #10240; assay: MLC by swabbing of the zones, M. luteus; assay type: cell-based; design: key: (+): MLC results are recorded as positive or negative for growth; (−): MLC results are recorded as positive or negative for growth
Procedure: (§1) For MLC Preparation, swabbing of the zones was performed to calculate MLC results. […] These swabs were then placed in TSA or BHIB for incubation. M. luteus tubes were incubated for 48 hours at 30° C. to 35° C. P. acnes tubes were incubated for 5-7 days at 35° C. to 38° C. anaerobically, C. xerosis tubes were incubated aerobically at 36° C. to 38° C. Tubes were inspected visually for growth and indicated below. Numbers indicate the average of the zone sizes on the two plates (in millimeters) as per MIC dilution. MLC results are recorded as positive or negative for growth.

gram-positive bacteria = assay: Killing and suppressing gram-positive bacteria; assay type: cell-based
human skin = assay: Irritation and sensitization of human skin; assay type: in vivo; conditions: at levels effective for suppressing malodor formation
P. acnes ATCC#11827 [3] = assay: MIC via Zone of Inhibition testing, P. acnes; assay type: cell-based, Propoinibacterium acnes
Procedure: (§2) For culture preparation, an overnight Tryptic Soy Agar (TSA) culture was grown with M. luteus ATCC #10240. This culture was washed and diluted with saline to 85% transmittance at 530 nm. An overnight anaerobic culture of P. acnes ATCC#11827 was prepared in Brain Heart Infusion Broth (BHIB). This was washed with saline and diluted to 85% transmittance at 530 nm. An overnight aerobic culture of C. xerosis ATCC#373 was also grown in BHIB, washed with saline and diluted to 85% transmittance at 530 nm. These cultures were used as inocula. Three sets of nine different dilutions of sample were prepared for MIC results using TSA or BHIB as follows: (1) 2.0 grams sample+8.0 mL media=1:5 or 20%; (2) 2.0 mL of #1+8.0 mL media=1:25 or 4%; (3) 2.0 mL of #2+8.0 mL media=1:125 or 0.8%; (4) 2.0 mL of #3+8.0 mL media=1:625 or 0.16%; (5) 2.0 mL of #4+8.0 mL media=1:3125 or 0.032%; (6) 2.0 mL of #5+8.0 mL media=1:15625 or 0.0064%; (7) 2.0 mL of #6+8.0 mL media=1:78125 or 0.00128%; (8) 2.0 mL of #7+8.0 mL media=1:390625 or 0.000256%; and (9) 2.0 mL of #8+8.0 mL media=1:1953125 or 0.0000512%.
(§3) The product dilutions were dispensed onto Zone of Inhibition plates. TSA and BHIB plates were prepared by using the base and seed method. Seed consisted of 2.0 mL of inoculum per 20.0 mL of TSA or BHIB used. A single penicylinder placed in the center of the plate when agar was solidified. Each penicylinder was inoculated with 200 μL of the MIC dilutions listed above; this procedure was performed in duplicate. Control plates were performed simultaneously; also using the base and seed method. M. luteus plates were incubated for 48 hours at 30° C. to 35° C. P. acnes plates were incubated for 5-7 days 36° C. to 38° C. anaerobically, C. xerosis plates were incubated aerobically at 36° C. to 38° C. Plates were measured for zones and calculated in millimeters.
as §1

[4] = test system: Micrococcus luteus ATCC #10240; assay: MIC via Zone of Inhibition testing, M. luteus; assay type: cell-based
Procedure: as §2, §3
For MLC Preparation, swabbing of the zones was performed to calculate MLC results. […] These swabs were then placed in TSA or BHIB for incubation. […] MLC results are recorded as positive or negative for growth.

P. acnes ATCC#11827 [5] = assay: MLC by swabbing of the zones, P. acnes; assay type: cell-based, Propoinibacterium acnes; design: key: (+): MLC results are recorded as positive or negative for growth; (−): MLC results are recorded as positive or negative for growth
Procedure: as §1

C. xerosis ATCC#373 [6] = assay: MLC by swabbing of the zones, C. xerosis; assay type: cell-based, Corynebacterium xerosis; design: key: (+): MLC results are recorded as positive or negative for growth; (−): MLC results are recorded as positive or negative for growth
Procedure: as §1

C. xerosis ATCC#373 [7] = assay: MIC via Zone of Inhibition testing, C. xerosis; assay type: cell-based, Corynebacterium xerosis
Procedure: as §2, §3, §1

CCCCCCCCCC(=O)N(C)C [dimethyl capramide, N,N-dimethyldecanamide]
solubility ([1]; in cyclomethicone): greater than 50 wt. %
solubility ([1]; in propylene glycol): greater than 50 wt. %
MLC Results, growth from swabbed zone ([2]; dilution 1:5 (20%)): (−)
MLC Results, growth from swabbed zone ([2]; dilution 1:25 (4%)): (+)
MLC Results, growth from swabbed zone ([2]; dilution 1:125 (0.8%)): (+)
killing and suppressing gram-positive bacteria (gram-positive bacteria): effective in killing and suppressing
irritation of human skin (human skin): non-irritating
MIC/Zone of Inhibition, average zone size (P. acnes ATCC#11827 [3]; dilution 1:5 (20%)): 21.2 millimeters
MIC/Zone of Inhibition, average zone size (P. acnes ATCC#11827 [3]; dilution 1:25 (4%)): 23.8 millimeters
MIC/Zone of Inhibition, average zone size (P. acnes ATCC#11827 [3]; dilution 1:125 (0.8%)): 18.0 millimeters
MIC/Zone of Inhibition, average zone size (P. acnes ATCC#11827 [3]; dilution 1:625 (0.16%)): 8.1 millimeters
MIC/Zone of Inhibition, average zone size ([4]; dilution 1:5 (20%)): 14.7 millimeters
MIC/Zone of Inhibition, average zone size ([4]; dilution 1:25 (4%)): 14.2 millimeters
MIC/Zone of Inhibition, average zone size ([4]; dilution 1:125 (0.8%)): 13.6 millimeters
MLC Results, growth from swabbed zone (P. acnes ATCC#11827 [5]; dilution 1:5 (20%)): (−)
MLC Results, growth from swabbed zone (P. acnes ATCC#11827 [5]; dilution 1:25 (4%)): (−)
MLC Results, growth from swabbed zone (P. acnes ATCC#11827 [5]; dilution 1:125 (0.8%)): (+)
MLC Results, growth from swabbed zone (P. acnes ATCC#11827 [5]; dilution 1:625 (0.16%)): (+)
MLC Results, growth from swabbed zone (C. xerosis ATCC#373 [6]; dilution 1:5 (20%)): (−)
MLC Results, growth from swabbed zone (C. xerosis ATCC#373 [6]; dilution 1:25 (4%)): (−)
MLC Results, growth from swabbed zone (C. xerosis ATCC#373 [6]; dilution 1:125 (0.8%)): (−)
MLC Results, growth from swabbed zone (C. xerosis ATCC#373 [6]; dilution 1:625 (0.16%)): (+)
MLC Results, growth from swabbed zone (C. xerosis ATCC#373 [6]; dilution 1:3125 (0.032%)): (+)
MIC/Zone of Inhibition, average zone size (C. xerosis ATCC#373 [7]; dilution 1:5 (20%)): 20.2 millimeters
MIC/Zone of Inhibition, average zone size (C. xerosis ATCC#373 [7]; dilution 1:25 (4%)): 13.9 millimeters
MIC/Zone of Inhibition, average zone size (C. xerosis ATCC#373 [7]; dilution 1:125 (0.8%)): 17.3 millimeters
MIC/Zone of Inhibition, average zone size (C. xerosis ATCC#373 [7]; dilution 1:625 (0.16%)): 8.6 millimeters
MIC/Zone of Inhibition, average zone size (C. xerosis ATCC#373 [7]; dilution 1:3125 (0.032%)): 7.2 millimeters
